Laboratory results taken from paper PMC3573960 (Molecular Neurodegeneration, 2012).

Tests used:
Tg2576 mice [1] = system: Tg2576 mice; parameters: method as in PMID 10908610, PMID 12930788; details: diet of 375 ppm for 4–6 months; cited from earlier work
Tg2576 mice [2] = system: Tg2576 mice; parameters: method as in PMID 16192379; details: 100 mg/kg p.o., 3 h before training; cited from earlier work
[3] = system: Aph1AL containing γ-secretase complexes; assay: Cell-free AICD production from APP β-CTF (Western blot); type: biochemical, murine; details: 10 μM
Procedure: DAPT was used as a reference positive control for the assay. For each assay condition, a 5-μL microsomal fraction, containing 1% CHAPSO (3-[(3-cholamidopropyl)dimethylammonio]-2-hydroxy-1-propanesulfonate) from murine embryonic fibroblasts (MEF) lacking the Aph-1A, Aph-1B, and Aph-1C genes (triple knock out) and rescued with Aph-1AL, was prepared in a reaction mixture of 5 μL substrate (recombinant APP β-CTF 3-Flag-tagged) at 0.8 μM, 0.0125% phosphatidylethanolamine, 0.1%, phosphatidylcholine, 0.05% sphingomyelin, and 8.9 μL PIPES (piperazine-N,N′-bis[−ethanesulfonic acid]) buffer. […] For detection of AICD, one-half of the reaction mixture was purified by a methanol-chloroform extraction in order to remove lipids and hydrophobic proteins (e.g., APP β-CTF). This purified fraction was further analyzed by SDS-PAGE and Western blotting. AICD was detected with an ANTI-FLAG® antibody (Sigma-Aldrich). The other half of the reaction mixture was used to analyze the levels of Aβ1-40 and Aβ1-42 by AlphaLisa (Perkin Elmer, Waltham, MA).

AD patients = system: AD patients; parameters: method as in PMID 18695053, PMID 21222550, PMID 22323718; details: cited from earlier work
γ-secretase (EphA4) = assay: EphA4 CTF accumulation in rat primary neocortical cultures (Western blot); details: 24 h, as low as 100 nM
Procedure: Protein concentration of the lysate was determined by the BCA method, and 30 μg of total protein were loaded on a 10% Bis-Tris gel (Invitrogen). EphA4 CTF was visualized using an anti-EphA4-CTF antibody (Abnova, Walnut, CA) and an IRDye800CW® secondary antibody (Rockland Immunochemicals, Inc., Gilbertsville, PA). Detection was performed using an Odyssey scanner (LiCor Biosciences) and blots quantified using ImageJ software (available at http://rsbweb.nih.gov/ij).

γ-secretase = assay: APP CTF accumulation in H4-APP751 cell lysates (Western blot); type: cell-based, human; details: H4-APP751 cells, 16 h
Text: Cells were lysed in situ and the resulting lysate cleared of nuclei by centrifugation, as described elsewhere. Samples were fractionated by SDS-PAGE on a 12% NuPage gel (Invitrogen), transferred to a nitrocellulose membrane, and immunoblotted with an anti-APP-CTF antibody (Sigma-Aldrich).

Aβ42 = system: Aβ42; parameters: method as in PMID 15304503; details: cited from earlier work

## CC(C)Cc1ccc(C(C)C(=O)O)cc1 (centres unmarked) [ibuprofen]
Tg2576 mice [1]
  amyloid plaque load and inflammatory mediators: marked decrease

## C[C@H](NC(=O)Cc1cc(F)cc(F)c1)C(=O)N[C@H](C(=O)OC(C)(C)C)c1ccccc1 [DAPT, N-(N-(3,5-difluorophenacetyl)-L-alanyl)-S-phenylglycine t-butyl ester, reference compound]
Tg2576 mice [2]
  CFC cognitive deficit: rapidly improved the CFC cognitive deficit
[3]
  production of AICD from APP β-CTF: almost completely abolished

## CC(C)[C@H](O)C(=O)N[C@@H](C)C(=O)N[C@@H]1C(=O)N(C)CCc2ccccc21 [Semegacestat]
AD patients
  toxicities in clinical trials in AD: drug-related rashes, lightening of hair color, skin cancer, and more importantly, worsening of cognition and the ability to perform activities of daily living

## C[C@H](NC(=O)[C@@H](O)c1cc(F)cc(F)c1)C(=O)N[C@@H]1C(=O)N(C)c2ccccc2-c2ccccc21 [LY-411,575, reference compound]
γ-secretase (EphA4)
  EphA4 CTF accumulation: led to EphA4 CTF accumulation
γ-secretase; 1 nM to 10 μM
  Full length APP: not altered
γ-secretase; concentration as low as 1 nM
  accumulation of APP α- or β-CTFs: led to their accumulation

## C[C@@H](C(=O)O)c1ccc(-c2ccccc2)c(F)c1 [Flurizan™]
Aβ42
  IC50: > 300 µM
